# Measured values as given in patent US20170008888A1 (KYORIN PHARMACEUTICAL CO., LTD., priority 2014, published 2017).
# Key:
# Format in all cases: binding
# [1] = molecular target: T1, BRD4 bromodomain domain I [BRD4(1)] (Homo sapiens, UniProt O60885); experiment: BRD4 bromodomain domain 1 inhibition assay (TR-FRET); conditions: screening concentration 10 μM
# T1 construct: BRD4 bromodomain domain I [BRD4(1)]; purchased Cayman Chemicals
# Outline: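 0.5% DMSO, in triplicate, using Cayman BRD4(1) TR-FRET protocol with slight modification. 670/620 nm ratio normalized to 10 μM JQ1, with DMSO control set as 0% inhibition.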
# [2] = system: AurB or AurC; experiment: Probe-based (AX9989) kinase profiling in Jurkat lysate: AurB or AurC
# Outline: (§1)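 Jurkat lysate (50 mM HEPES pH 7.5, 150 mM NaCl, 0.1% Triton X-100, 20 mM MnCl2) pre-incubated 15 min with compound at room temperature, then labeled with 5 μM acyl phosphate ATP probe AX9989. Tryptic probe-labeled peptides streptavidin-captured and quantified by LC/MS; percent inhibition from decreased fragment intensity versus untreated.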
# [3] = molecular target: T2, AurA (Homo sapiens, UniProt O14965); experiment: Probe-based (AX9989) kinase profiling in Jurkat lysate: AurA; conditions: read-out: Kinase inhibition % at indicated screening concentration: AurA; for inhibition at 1 µM: screening concentration 1.0 μM; for inhibition at 0.1 µM: screening concentration 0.1 μM
# T2 construct: screened for activity against several kinases in Jurkat cells; endogenous in cells; host or cells: Jurkat cell lysate
# T2 sequence (O14965 1-403): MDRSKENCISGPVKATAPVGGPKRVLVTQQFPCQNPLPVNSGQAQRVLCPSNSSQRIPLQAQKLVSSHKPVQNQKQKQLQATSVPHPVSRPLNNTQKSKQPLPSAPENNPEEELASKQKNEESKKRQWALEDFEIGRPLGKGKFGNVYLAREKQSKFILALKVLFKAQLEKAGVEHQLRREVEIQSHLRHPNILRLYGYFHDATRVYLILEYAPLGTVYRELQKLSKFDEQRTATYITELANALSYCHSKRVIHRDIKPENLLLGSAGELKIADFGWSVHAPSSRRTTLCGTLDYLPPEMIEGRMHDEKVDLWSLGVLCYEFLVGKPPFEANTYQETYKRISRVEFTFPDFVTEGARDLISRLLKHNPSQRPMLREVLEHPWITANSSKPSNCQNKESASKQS
# Outline: as §1
# [4] = system: AMPKa1 or AMPKa2; experiment: Probe-based (AX9989) kinase profiling in Jurkat lysate: AMPKa1 or AMPKa2
# Outline: as §1
# [5] = molecular target: T3, JAK1 (Homo sapiens, UniProt P23458); experiment: Probe-based (AX9989) kinase profiling in Jurkat lysate: JAK1; conditions: read-out: Kinase inhibition % at indicated screening concentration: JAK1; for inhibition at 1 µM: screening concentration 1.0 μM; for inhibition at 0.1 µM: screening concentration 0.1 μM
# T3 construct: screened for activity against several kinases in Jurkat cells; endogenous in cells; host or cells: Jurkat cell lysate
# T3 sequence (P23458 whole entry): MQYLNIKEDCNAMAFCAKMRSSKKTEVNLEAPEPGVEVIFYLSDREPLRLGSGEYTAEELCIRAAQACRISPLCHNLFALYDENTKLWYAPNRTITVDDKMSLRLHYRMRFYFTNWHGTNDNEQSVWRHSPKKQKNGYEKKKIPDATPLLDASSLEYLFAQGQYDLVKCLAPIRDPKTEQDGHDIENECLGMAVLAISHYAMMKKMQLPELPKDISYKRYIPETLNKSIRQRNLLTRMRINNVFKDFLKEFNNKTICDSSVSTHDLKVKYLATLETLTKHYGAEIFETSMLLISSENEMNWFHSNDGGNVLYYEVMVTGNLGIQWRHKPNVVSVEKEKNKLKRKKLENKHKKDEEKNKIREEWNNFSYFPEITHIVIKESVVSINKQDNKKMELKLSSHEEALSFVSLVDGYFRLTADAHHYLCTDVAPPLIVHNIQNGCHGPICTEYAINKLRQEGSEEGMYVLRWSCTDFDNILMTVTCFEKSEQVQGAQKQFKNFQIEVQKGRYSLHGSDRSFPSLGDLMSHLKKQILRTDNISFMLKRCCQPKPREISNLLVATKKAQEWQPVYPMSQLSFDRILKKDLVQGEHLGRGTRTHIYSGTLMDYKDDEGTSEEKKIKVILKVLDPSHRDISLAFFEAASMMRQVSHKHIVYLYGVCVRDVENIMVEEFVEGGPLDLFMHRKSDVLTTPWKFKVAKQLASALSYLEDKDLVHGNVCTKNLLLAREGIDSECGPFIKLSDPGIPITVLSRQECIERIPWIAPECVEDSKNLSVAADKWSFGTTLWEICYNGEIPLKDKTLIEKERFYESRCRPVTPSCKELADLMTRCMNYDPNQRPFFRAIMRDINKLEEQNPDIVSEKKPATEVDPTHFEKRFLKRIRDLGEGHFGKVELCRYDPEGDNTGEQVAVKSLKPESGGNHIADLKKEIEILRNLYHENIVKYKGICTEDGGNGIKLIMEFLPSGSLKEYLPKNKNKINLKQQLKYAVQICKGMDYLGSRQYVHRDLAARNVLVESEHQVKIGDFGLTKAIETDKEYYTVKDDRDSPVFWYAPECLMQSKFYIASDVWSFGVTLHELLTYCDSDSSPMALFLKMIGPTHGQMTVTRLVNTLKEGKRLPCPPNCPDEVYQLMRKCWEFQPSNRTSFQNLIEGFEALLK
# Outline: as §1
inhibition at 10 µM [1] [%],Kinase inhibition % at indicated screening concentration: AurB or AurC ([2]; screening concentration 1.0 μM),inhibition at 1 µM [3] [%],Kinase inhibition % at indicated screening concentration: AMPKa1 or AMPKa2 ([4]; screening concentration 1.0 μM),inhibition at 1 µM [5] [%],Kinase inhibition % at indicated screening concentration: AurB or AurC ([2]; screening concentration 0.1 μM),inhibition at 0.1 µM [3] [%],Kinase inhibition % at indicated screening concentration: AMPKa1 or AMPKa2 ([4]; screening concentration 0.1 μM),inhibition at 0.1 µM [5] [%],Compound
70 to 85,E (E is ≦35%),≤ 35,E (E is ≦35%),≤ 35,–,–,–,–,CCOc1cc(C(=O)N2CCCCC2)ccc1Nc1cc2c(cn1)N(C)C(=O)c1ccccc1N2C [Compound 12]
> 85,–,–,–,–,E (E is ≦35%),≤ 35,E (E is ≦35%),≤ 35,CCOc1cc(C(=O)N2CCC(N3CCCC3)C2)ccc1Nc1cc2c(cn1)N(C)C(=O)c1occc1N2C (centres unmarked) [Compound 15]
> 85,–,–,–,–,E (E is ≦35%),≤ 35,E (E is ≦35%),≤ 35,CCOc1cc(C(=O)N2CC[C@H](O)C2)ccc1Nc1cc2c(cn1)N(C)C(=O)c1occc1N2C [Compound 17]
70 to 85,–,–,–,–,E (E is ≦35%),≤ 35,E (E is ≦35%),≤ 35,C=CCN1CCN(C(=O)c2ccc(Nc3cc4c(cn3)N(C)C(=O)c3ccccc3N4C)c(OCC)c2)CC1 [Compound 21]
> 85,–,–,–,–,E (E is ≦35%),≤ 35,E (E is ≦35%),≤ 35,CCOc1cc(C(=O)N2CC[C@@H](N3CCCC3)C2)ccc1Nc1cc2c(cn1)N(C)C(=O)c1ccccc1N2C [Compound 24]
> 85,–,–,–,–,E (E is ≦35%),≤ 35,E (E is ≦35%),≤ 35,CCOc1cc(C(=O)N2CC[C@@H](N(C)C)C2)ccc1Nc1cc2c(cn1)N(C)C(=O)c1occc1N2C [Compound 25]
> 85,–,–,–,–,E (E is ≦35%),≤ 35,E (E is ≦35%),≤ 35,CCOc1cc(C(=O)N(C)CCN2CCCC2)ccc1Nc1cc2c(cn1)N(C)C(=O)c1ccccc1N2C [Compound 28]
70 to 85,–,–,–,–,E (E is ≦35%),≤ 35,E (E is ≦35%),≤ 35,CCOc1cc(C(=O)N(C)CCn2ccnc2)ccc1Nc1cc2c(cn1)N(C)C(=O)c1ccccc1N2C [Compound 30]
> 85,–,–,–,–,E (E is ≦35%),≤ 35,E (E is ≦35%),≤ 35,CCOc1cc(C(=O)N2CCNC[C@@H]2C)ccc1Nc1cc2c(cn1)N(C)C(=O)c1ccccc1N2C [Compound 31]
70 to 85,–,–,–,–,E (E is ≦35%),≤ 35,E (E is ≦35%),≤ 35,CCOc1cc(C(=O)N2CCN(CCO)CC2)ccc1Nc1cc2c(cn1)N(C)C(=O)c1ccccc1N2C [Compound 37]
< 70,–,–,–,–,E (E is ≦35%),≤ 35,E (E is ≦35%),≤ 35,CCOc1cc(C(=O)N2CCN(C3CC3)CC2)ccc1Nc1cc2c(cn1)N(C)C(=O)c1ccccc1N2C [Compound 39]
< 70,E (E is ≦35%),≤ 35,E (E is ≦35%),≤ 35,–,–,–,–,CCOc1cc(C(=O)N2CCC(N3CCN(C)CC3)CC2)ccc1Nc1cc2c(cn1)N(C)C(=O)c1ncccc1N2C [Compound 40]
> 85,E (E is ≦35%),≤ 35,E (E is ≦35%),≤ 35,–,–,–,–,CCOc1cc(C(=O)N(C)CCN(CC)CC)ccc1Nc1cc2c(cn1)N(C)C(=O)c1ccccc1N2C [Compound 42]
> 85,–,–,–,–,E (E is ≦35%),≤ 35,E (E is ≦35%),≤ 35,CCOc1cc(C(=O)N2CCC(NC)C2)ccc1Nc1cc2c(cn1)N(C)C(=O)c1occc1N2C (centres unmarked) [Compound 43]
70 to 85,E (E is ≦35%),≤ 35,E (E is ≦35%),≤ 35,–,–,–,–,CCOc1cc(C(=O)NCCN2CCN(C)CC2)ccc1Nc1cc2c(cn1)N(C)C(=O)c1ccccc1N2C [Compound 44]
< 70,E (E is ≦35%),≤ 35,E (E is ≦35%),≤ 35,–,–,–,–,CN1C(=O)c2ccccc2N(C)c2cc(N[C@H]3CC[C@H](NC4=NCCO4)CC3)ncc21 [Compound 45]
